Results on 113 compounds are retold here after a melting point compilation (Tetko et al.).

Molecules are shown by their SMILES.

As for `C#CC1(O)CCC2(C)C(CCC3C2CCC2(C)C(OC(C)=O)CCC32)C1` (stereo not drawn), the melting point came out at 196 °C.
Then `Cn1ccc(C#N)n1`, with 41.5 to 45 °C.
As to `O=C(Oc1c(F)c(F)c(F)c(F)c1F)c1ccccc1OC1CCOCC1`, the melting point was 62 to 64 °C.
`CN(C(=O)OC(C)(C)C)C(C)(C)C(=O)O`: the melting point was in the range of 153 to 157 °C.
In the case of `Nc1ncccc1[N+](=O)[O-]` it was 166 °C; in that of `O=C=Nc1ccc(Cl)c(C(F)(F)F)c1`, 35 to 36 °C.
In the case of `N#Cc1c(N2CCCC2)cc(Cl)nc1N1CCCC1` it was 132 to 140 °C; in that of `CN1CCC23c4c5ccc(OCc6ccccc6)c4OC2C(O)C=CC3C1C5` (stereo not drawn), 132 °C; in that of `Clc1ccc(CBr)cc1`, 49 °C.
Then `O=C(O)c1ccc2c(c1)C(=O)c1cc(C(=O)O)ccc1-2`, with 407 °C.
Compound `O=C(O)c1ccc(-n2nc(C(=O)c3cccs3)s/c2=N\C(=O)c2ccccc2)cc1` came in with a melting point of 219 °C.
For the compound `BrCc1nc2ccccc2s1`, the melting point worked out at 47 °C.
`CC1CN1` (stereo not drawn): the melting point was -65 °C.
With `OCc1ccccc1S`, the melting point was 32 °C.
`CC(C)(C)OC(=O)N1OC1c1ccc(C#N)cc1` (stereo not drawn) registered a melting point of 57 to 63 °C.
Then `CC(=O)OC1CCC2C3CCC4CC=CCC4(C)C3CCC12C` (stereo not drawn), with 93 to 94 °C; and `O=C(O)c1cc([N+](=O)[O-])c(Cl)c([N+](=O)[O-])c1`, with 161 °C; and `CNCC(O)c1cccc(NS(C)(=O)=O)c1` (stereo not drawn), with 159 °C.
In the case of `Cc1ccc(S(=O)(=O)OCC(F)(F)F)cc1` it was 40 °C; in that of `O=Cc1ccc(N2CCOCC2)c([N+](=O)[O-])c1`, 53 to 55 °C.
In the case of `S=C1SCN(Cc2ccccc2)CN1Cc1ccccc1` it was 102 °C.
Take `CNCCCCCCN(C)N(O)N=O`: the melting point fell in the range of 102 to 108 °C.
Then `N#CCCn1c(=O)oc2ccccc21`, with 118 to 120 °C; and `O=CCCc1ccccc1`, with 47 °C.
In the case of `COC1C(C(O)CO)OC2OC3(CCCCC3)OC21` (stereo not drawn) it was 98 to 102 °C; in that of `CC(=O)CS(=O)(=O)c1ccc(C)cc1`, 52 to 54 °C; in that of `NC(=O)NCc1ccc(F)cc1`, 172 to 175 °C.
Then `Nc1c(Br)cc(Br)c2c1C(=O)c1ccccc1C2=O`, with 227 °C; and `Cc1ccc(COc2cccc(F)c2C#N)cc1`, with 81 to 83 °C; and `CC(C)CCCCCCCO`, with 5 °C.
Regarding `COc1ccc2[nH]cc(CCN(C)C)c2c1`, the melting point is 69.5 °C.
Consider `O=C(O)CCc1ccccc1O`, for which the melting point came out at 87 °C.
Then `O=C(O)CCc1ccc2c(c1)NC(=O)CC2`, with 240 °C; and `N=c1sc(C(=O)c2cccs2)nn1-c1ccccc1`, with 134 °C; and `CC(=O)C=CC1C(C)=CCCC1(C)C` (stereo not drawn), with < 25 °C.
`Nc1nccnn1` returned a melting point of 176 °C.
In the case of `CC(=O)N(CC(C)C(=O)O)c1c(I)cc(I)c(N)c1I` (stereo not drawn) it was 224 °C; in that of `COC(=O)c1ccc(C(=O)OC)c(C(=O)OC)c1`, 39 °C.
Then `NS(=O)(=O)c1ccc(SCCCCO)cc1`, with 101 °C; and `COC(=O)CCc1ccc(O)cc1`, with 37 to 41 °C; and `O=C(NC(=S)Nc1ccccc1)c1ccccc1`, with 159 to 161 °C.
`Cc1cc(C(=O)Nc2ccc(Cl)cc2)no1` yielded a melting point of 155 to 157 °C.
`N#CCN1CCCCC1`: the melting point was determined as 25 °C.
Then `O=C(C(=O)c1ccc2c3c(cccc13)CC2)c1ccccc1`, with 148 °C; and `COc1ccc2c(c1)C(=O)CC2`, with 107 to 111 °C; and `CC(C)c1ccc(NC(=O)N(C)C)cc1`, with 158 °C.
In the case of `ON=Cc1cccnc1` it was 150 °C.
Then `NC(=O)Cc1ccc(F)cc1Cl`, with 171 to 173 °C.
Turning to `C[Si](C)(C)N=C=S`, the melting point is -32.8 °C.
Then `CSCCC(NC(=O)c1ccccc1)C(=O)O` (racemic), with 150 to 154 °C.
Compound `CC1Cc2ccccc2N1NC(=O)c1ccc(Cl)c(S(N)(=O)=O)c1` (stereo not drawn) came in with a melting point of 161 °C.
In the case of `CC1=C(C(=O)OC(C)(C)C)C(c2ccco2)NC(=O)N1` (stereo not drawn), the melting point stood at 208 °C.
Then `O=C(c1ccccc1)c1ccc(F)c(C(F)(F)F)c1`, with 46 °C; and `O=[N+]([O-])c1ccccc1/C=C/c1ccccc1`, with 73 °C.
Then `Nc1ccc([N+](=O)[O-])c(Cl)c1`, with 159 °C.
Then `CCOC(=O)C(Br)C(Br)c1ccccc1` (stereo not drawn), with 77 to 79 °C.
In the case of `CCOC(=O)c1c[nH]c(S)n1`, the melting point was 191 to 193 °C.
Then `Cc1ccc([N+](=O)[O-])cc1S(=O)(=O)Cl`, with 44 °C; and `Cc1cccc(C)c1C(N)=O`, with 136 to 138 °C; and `Ic1cccc2ccccc12`, with 4 °C.
For the compound `CCCCCCCCCCCCCCCCCCCCCCCCCCCCCCCCCC`, the melting point stood at 72.6 °C.
In the case of `CC(=O)c1nc2ccccc2s1` it was 109 to 112 °C; in that of `O=Cc1ccc(CN2C(=O)c3ccccc3C2=O)o1`, 125 to 126 °C.
In the case of `CC(C)(C)c1cc(C(=O)O)n(Cc2ccccc2)n1` it was 126 °C; in that of `CC(=O)CCc1oc2c(Br)cc(Br)cc2c1-c1ccc(C)o1`, 107 to 108 °C.
On to `OCC(O)CN1CCCC1` (stereo not drawn), for which the melting point is 43 to 48 °C.
In the case of `C=CCCCCCCCCCCCCCCCCC` it was 23 °C.
Turning to `C=C1CCCCC1`, the melting point was -107 °C.
Then `CCc1n[nH]c2cc(-c3ccccc3)nn12`, with 188 to 190 °C.
In the case of `COc1c(C(=O)O)csc1Cl`, the melting point is 140 °C.
Then `CC#CC1(O)CCC2C3CC(C)C4=CC(=O)CCC4(C)C3CCC21C` (stereo not drawn), with 102 °C; and `Cc1onc(-c2c(Cl)cccc2Cl)c1CO`, with 107 to 109 °C.
Then `O=C(O)c1ccc2occc2c1`, with 189 to 190 °C.
In the case of `OC(CCCc1ccccc1)c1ccccc1` (stereo not drawn) it was 47 °C; in that of `c1ccc(Oc2ccccc2-c2ccccc2)cc1`, 49 °C; in that of `O=CC=P(c1ccccc1)(c1ccccc1)c1ccccc1`, 186 °C.
For the compound `CSc1ccc(C(F)(F)F)cc1NN`, the melting point was 86 to 88 °C.
Consider `C1=NCC(c2ccc(C3CN=CC=N3)cc2)N=C1` (stereo not drawn), for which the melting point turned out to be 262 °C.
In the case of `COCc1cc(O)nc(SC)n1` it was 195 to 196 °C.
In the case of `Clc1cc(-c2ccccc2)nc2ccccc12` it was 62 to 64 °C.
As for `CC(=O)NC1C(Oc2c[nH]c3ccc(Br)c(Cl)c23)OC(CO)C(O)C1O` (stereo not drawn), the melting point lay within 246 to 248 °C.
`CCCCCCCCCCCCCCCc1ccccc1`: the melting point was found to be 22 °C.
In the case of `O=CC1=Cc2cc(O)ccc2OC1` it was 165 °C.
In the case of `O=C(Cl)c1ccc(-c2ccsc2)cc1` it was 145 to 147 °C; in that of `Cc1c(C(=O)O)sc2sc(C(=O)O)c(C)c12`, 360 °C; in that of `O=C1C[C@@H](C(=O)O)c2ccccc21`, 113 °C.
In the case of `O=C(Nc1ccccc1Br)Nc1ccccc1Br` it was 235 to 237 °C; in that of `Cc1ccc(C)c2ccccc12`, 7.6 °C; in that of `Fc1ccc(Cc2ccc(F)cc2)cc1`, 29 to 30 °C.
Consider `O=C(Nc1ccc(Cl)cc1)Nc1ccc(Cl)c(C(F)(F)F)c1`, for which the melting point is 214 °C.
In the case of `O=C(c1ccco1)c1noc(-c2ccc(Cl)cc2)c1S(=O)(=O)c1ccccc1` it was 140 °C; in that of `CCOC(=O)c1c(NC(=S)Nc2cccc(Cl)c2)sc2c1CCCC2`, 175 to 177 °C; in that of `Cc1ccc(N=CN(C)C=Nc2ccc(C)cc2C)c(C)c1`, 86 °C.
`OC[C@H]1O[C@H](CO)[C@@H](O)[C@@H]1O` yielded a melting point of 100 to 103 °C.
In the case of `CCS(=O)(=O)c1nc2ccccn2c1S(=O)(=O)NC(=O)Nc1nc(OC)cc(OC)n1` it was 202 °C; in that of `CC1(C)CC(=O)C(=Cc2ccc(-c3ccc(Cl)cc3)o2)C(=O)C1`, 206 °C; in that of `CCCCCCCCCCOc1ccccc1OCCCCCCCCCC`, 39 to 42 °C.
Compound `Cc1ccc(CCc2ccc(C)cc2)cc1` showed a melting point of 85 °C.
In the case of `C=CCOC(=O)Nc1cc(O)cc(C(=O)O)c1` it was 194 to 197 °C; in that of `Cn1nc(-c2cccs2)cc1CN`, 77 to 78 °C; in that of `COc1ccc2c3c([nH]c2c1)C1CC2C(CC(O)C(OC)C2C(=O)O)CN1CC3` (stereo not drawn), 242 °C.
Then `Nc1nc2ccccc2n1Cc1ccccc1`, with 200 to 204 °C; and `CC(=O)Oc1ccccc1`, with -30 °C.
In the case of `CCOC(=O)c1c(-c2ccccc2)csc1NC(=O)c1ccccc1Cl` it was 131 to 132 °C; in that of `CCCCCCCCCCCCCCCC(=O)OCCOC(=O)CCCCCCCCCCCCCCC`, 72 °C.
`O=Cc1cccc(O)c1O` came in with a melting point of 104 to 109 °C.
In the case of `N#Cc1ccc(CCc2ccc(C#N)cc2)cc1` it was 198 to 203 °C; in that of `N#CCC(=O)c1cccs1`, 112 °C; in that of `CSc1scnc1S(=O)(=O)c1ccc(C)cc1`, 169 to 171 °C.
In the case of `Fc1ccc(S)cc1F` it was 34 to 38 °C.
Then `N#CC1(O)C(C2COC3(CCCCC3)O2)OC2OC3(CCCCC3)OC21` (stereo not drawn), with 107 to 113 °C.
As to `COc1ccc(F)c(C=O)c1OC`, the melting point is 46 °C.
Then `C=Cc1ccccc1[N+](=O)[O-]`, with 13 °C.

As usually defined, the melting point is the temperature, or range, at which the solid turns liquid.
